Assay results published in patent US9650614B2, “Anaplastic lymphoma kinase (ALK) as oncoantigen for lymphoma vaccination” (priority 2007, dated 2017).
Entries after “also recorded” stand apart in the source; their conditions may differ.

B1: pDEST-ALKt: pDEST plasmid with truncated form of ALK lacking part of the tyrosine kinase domain (SEQ ID No.: 2) (nucleic acid)
DNA: TGCTTTGCTGGCAAGACCTCCTCCATCAGTGACCTGAAGGAGGTGCCGCGGAAAAACATCACCCTCATTCGGGGTCTGGGCCATGGCGCCTTTGGGGAGGTGTATGAAGGCCAGGTGTCCGGAATGCCCAACGACCCAAGCCCCCTGCAAGTGGCTGTGAAGACGCTGCCTGAAGTGTGCTCTGAACAGGACGAACTGGATTTCCTCATGGAAGCCCTGATCATCAGCAAATTCAACCACCAGAACATTGTTCGCTGCATTGGGGTGAGCCTGCAATCCCTGCCCCGGTTCATCCTGCTGGAGCTCATGGCGGGGGGAGACCTCAAGTCCTTCCTCCGAGAGACCCGCCCTCGCCCGAGCCAGCCCTCCTCCCTGGCCATGCTGGACCTTCTGCACGTGGCTCGGGACATTGCCTGTGGCTGTCAGTATTTGGAGGAAAACCACTTCATCCACCGAGACATTGCTGCCAGAAACTGCCTCTTGACCTGTCCAGGCCCTGGAAGAGTGGCCAAGATTGGAGACTTCGGGATGGCCCGAGACATCTACAGGGCGAGCTACTATAGAAAGGGAGGCTGTGCCATGCTGCCAGTTAAGTGGATGCCCCCAGAGGCCTTCATGGAAGGAATATTCACTTCTAAAACAGACACATGGTCCTTTGGAGTGCTGCTATGGGAAATCTTTTCTCTTGGATATATGCCATACCCCAGCAAAAGCAACCAGGAAGTTCTGGAGTTTGTCACCAGTGGAGGCCGGATGGACCCACCCAAGAACTGCCCTGGGCCTGTATACCGGATAATGACTCAGTGCTGGCAACATCAGCCTGAAGACAGGCCCAACTTTGCCATCATTTTGGAGAGGATTGAATACTGCACCCAGGACCCGGATGTAATCAACACCGCTTTG
modifications: portion of cytoplasmic domain of ALK - human

How the values were obtained:
NPM-ALK lymphoma cells [1] = assay: in vitro survival of lymphoma cells with doxorubicin (TMRM staining, flow cytometry); assay type: cell-based, murine; conditions: 24 or 48 hours, increasing concentrations
Description: FIG. 6. NPM-ALK lymphoma cells are sensitive to doxorubicin. NPM-ALK lymphoma cells were incubated in vitro for 24 or 48 hours with increasing concentrations of doxorubicin. Percentages of alive cells were calculated by TMRM staining and flow cytometry analyses.
To mimic more strictly these clinical settings, the efficiency of the vaccination strategy disclosed herein in association with chemotherapy, which remains the standard therapeutic strategy for human Anaplastic Large Cell Lymphomas (ALCL), was tested.

NPM-ALK lymphoma cells [2] = assay: i.v. lymphoma treated with single dose doxorubicin followed by DNA vaccination; assay type: in vivo, BALB/c mice
Excerpt: FIG. 2. Efficacy of ALK vaccination in preventing disseminated lymphoma growth and in lymphoma therapy (a,b) Disseminated growth of NPM-ALK lymphoma cells injected in the tail vein in mock or ALK plasmid vaccinated BALB/c mice. (a) All mock vaccinated mice challenged i.v. 7 days after the second vaccination with 1×10^6 NPM-ALK lymphoma died of lymphoma outgrowth within 50 days after challenge while 70% of ALK vaccinated mice remained alive and well for all the observation period of 180 days. […] (c) Increasing amounts of NPM-ALK lymphoma cells were injected s.c. in BALB/c mice on day 0. Mice were then vaccinated as described above on days 1 and 8. Tumor growth was followed over time. Data are from one of two independent experiments with at least 7 mice for each group. * P<0.01. (d) BALB/c mice were i.v. injected with 1×10^6 NPM-ALK lymphoma cells on day 0. On day 7 mice received i.v. 10 mg/kg of doxorubicin (dashed arrow) followed on days 14, 21 and 28 by DNA vaccination with empty (mock) or ALK-expressing plasmids (full arrows). Mice were then followed up to 90 days. […] Tumor size was measured over time. […]
A single dose chemotherapy protocols was employed using doxorubicin (10 mg/kg) 7 day prior the i.v. injection of a challenging dose (1×10^6) of NPM-ALK positive lymphoma cells. […] Tumor growth and overall survival were determined, overtime.

[3] = test system: NPM-ALK expressing lymphoma cells; assay: s.c. challenge with NPM-ALK lymphoma cells after DNA vaccination; assay type: in vivo, BALB/c mice; conditions: vaccinated twice at a week interval; s.c. challenge one week after second vaccination
Description: FIG. 1. ALK vaccination prevents the growth of NPM-ALK positive lymphoma cells. (a,b) BALB/c mice were vaccinated on day 0 and 7 in both the tibial muscles with 40 μg of pDEST plasmid or with pDEST-ALK (ALK) plasmid coding for the full ALK tyrosine kinase intracytoplasmic domain (a) or with pDEST-ALKt (ALKt) coding for a truncated portion of ALK lacking the part of the tyrosine kinase domain (b). An additional group of mice was vaccinated with the pDEST-ALK or pDEST-ALKt plasmids combined with the same amount of a pcDNA3 plasmid coding for GM-CSF. […]
Mice were challenged subcutaneously in the right flank with 0.2 ml PBS of a single suspension containing 10^5 to 10^6 ALK-OVA and VAC lymphoid cells, as indicated in each experiment. The cages were coded, and the incidence and the growth of tumors were evaluated at the indicated times in a blind fashion. Neoplastic masses were measured with calipers in the two perpendicular diameters.
For DNA electroporation, 50 μg of pDEST empty vector or pDEST-ALK (ALK) vector in 20 μl of 0.9% NaCl with 6 mg/ml polyglutamate were injected on days 0 and 7 into both the tibial muscle of anesthetized BALB/c mice. […] Protection was evaluated as the percentage of lymphoma-free mice 21 days after challenge.

Molecule	sensitivity of lymphoma cells (apoptosis / alive cells) (NPM-ALK lymphoma cells [1])	cure rate (NPM-ALK lymphoma cells [2]; chemotherapy alone (single dose doxorubicin one week after 1×10^6 cells i.v.)) [%]	survival (NPM-ALK lymphoma cells [2]; chemotherapy alone versus untreated mice)	protection from localized lymphoma growth [3]
COc1cccc2c1C(=O)c1c(O)c3c(c(O)c1C2=O)C[C@@](O)(C(=O)CO)C[C@@H]3O[C@H]1C[C@H](N)[C@H](O)[C@H](C)O1 [doxorubicin]	sensitive; also recorded: rapid apoptosis with low doses	60	prolonged their survival	–
pDEST-ALK^K210R: pDEST plasmid encoding cytoplasmic portion of kinase dead mutant K210R of ALK (SEQ ID No.:3)	–	–	–	total protection
B1	–	–	–	total protection
